Laboratory results from patent US20230286973A1, “PROTEIN SECRETION INHIBITORS” (KEZAR LIFE SCIENCES, priority 2020, published 2023).
Where two headings read alike, the source gives them in different places.

What was measured:
[1] = test system: TNFα-FL/Gaussia Luciferase; assay: Dox Induced TNFα-FL-Gluc Assay; assay type: cell-based; settings: for IC50: 24 hr Dox induction, 293FRT/TO cells, read-out: 24 hr Dox Inducible TNFaFLGluc 293FRT/TO: Mean IC50; for 24 hr Dox Inducible TNFaFLGluc 293FRT/TO: TNF/PD1: ratio of TNFaFLGluc IC50 to PD1ssGluc IC50
How it was run: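 Cells are seeded one day ahead, then treated with compound plus doxycycline at 37 °C, 5% CO2. The stable Flp-In 293 T-REx line expresses full-length TNFα (amino acids 1-233) with Gaussia luciferase fused to its 3′ end, inducibly via T-REx.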

[2] = test system: IL-2-FL/Gaussia Luciferase; assay: Dox Induced IL2-FL-Gluc Assay; assay type: cell-based; settings: for IC50: 24 hr Dox induction, 293FRT/TO cells, read-out: 24 hr Dox Inducible IL2FLGluc 293FRT/TO: Mean IC50; for 24 hr Dox Inducible IL2FLGluc 293FRT/TO: IL2/PD1: ratio of IL2FLGluc IC50 to PD1ssGluc IC50
How it was run: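 Reporter is Gaussia luciferase fused to the 3′ end of full-length IL-2 (aa 1-153), expressed from a doxycycline-inducible T-REx construct in stably selected Flp-In 293 cells. Compounds were co-added with doxycycline and incubated at 37° C, 5% CO2.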

[3] = test system: PD1-ss+10aa/Gaussia Luciferase; assay: Dox-Induced PD1-ss-Gluc Assay; assay type: cell-based; settings: 24 hr Dox induction, 293FRT/TO cells, read-out: 24 hr Dox Inducible PD1ssGluc 293FRT/TO: Mean IC50
How it was run: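 Compounds were added in DMSO/media with doxycycline and incubated at 37 °C, 5% CO2, on 293 T-REx cells plated one day earlier. These cells stably express, under tetracycline-regulated control, a Gaussia luciferase fused to the PD1 signal peptide plus 10 residues. Structures drawn without stereochemistry were tested as stereoisomer mixtures.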

[4] = Liver Microsome Stability Assay (mouse); settings: mouse liver microsomes, with NADPH, 1.0 uM compound
Method: (§1) Stability of a compound was assessed in the presence of liver microsomes from various sources—mouse, rat, monkey and human liver microsomes. 1.0 uM compound, 0.4% DMSO in 0.1 M Potassium Phosphate with 1.0 mg/mL liver microsomes, were incubated at 37° C. with or without 1 mM NADPH. The samples were quenched at 0, and 30 minutes.

[5] = test system: HER3-ss+4aa/Gaussia Luciferase; assay: Dox-Induced Her3-ss-Gluc Assay; assay type: cell-based; settings: 24 hr Dox induction, 293FRT/TO cells, read-out: 24 hr Dox Inducible Her3(ss + 4)Gluc 293FRT/TO: Mean IC50
How it was run: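 Expression of a Gaussia luciferase reporter carrying the HER3 signal sequence plus 4 amino acids is induced by doxycycline in stably transfected Flp-In 293 T-REx cells. Compounds are added with doxycycline at 37° C., 5% CO2. Undefined stereocentres denote stereoisomer mixtures.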

[6] = Liver Microsome Stability Assay (human); settings: human liver microsomes, with NADPH, 1.0 uM compound
Method: as §1

[7] = Liver Microsome Stability Assay (rat); settings: rat liver microsomes, with NADPH, 1.0 uM compound
Method: as §1

[8] = test system: multiple myeloma cell line U266B1; assay: U266 Cell Viability Assay; assay type: cell-based, human; settings: Homo sapiens, U-266, 48 h, U266B1 cells, Celltiter-Glo
How it was run: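 48 h treatment, 37° C./5% CO2, RPMI 1640 + 10% FBS; viability by CellTiter-Glo luminescence.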

[9] = Liver Microsome Stability Assay (monkey); settings: monkey liver microsomes, with NADPH, 1.0 uM compound
Method: as §1

[10] = test system: multiple myeloma cell line NCI-H929; assay: H929 Cell Viability Assay; assay type: cell-based, human; settings: Homo sapiens, NCI-H929, 48 h, NCI-H929 cells, Celltiter-Glo
How it was run: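 Plate the myeloma cells in RPMI 1640 with 10% FBS, add serially diluted compound, incubate for 48 hours at 37° C, then add CellTiter-Glo and read luciferase signal.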

[11] = '<=>' given where both are I.A.

## C[C@@H](N)c1ccc(N2CCC[C@@H]2c2csc(NC(=O)c3cccn3Cc3ccncc3)n2)cc1 [Compound A67, N-(4-((R)-1-(4-((R)-1-aminoethyl)phenyl)pyrrolidin-2-yl)thiazol-2-yl)-1-(pyridin-4-ylmethyl)-1H-pyrrole-2-carboxamide]
[1]
  IC50: 0.862 µM
  24 hr Dox Inducible TNFaFLGluc 293FRT/TO: TNF/PD1: 36.4
[2]
  IC50: 55 nM
  24 hr Dox Inducible IL2FLGluc 293FRT/TO: IL2/PD1: 2.3
[3]
  IC50: 23.6 nM
[4]
  Liver Microsome Stability (Multiple Species): Mouse - % Remaining after 30 min w/NADPH: 82.3%
[5]
  IC50: 65.1 nM
[6]
  Liver Microsome Stability (Multiple Species): Human - % Remaining after 30 min w/NADPH: 28.9%
[7]
  Liver Microsome Stability (Multiple Species): Rat - % Remaining after 30 min w/NADPH: 51.9%
[8]
  EC50: 6.86 µM
[9]
  Liver Microsome Stability (Multiple Species): Monkey - % Remaining after 30 min w/NADPH: 40.4%
[10]
  EC50: 0.562 µM

## O=C(Nc1nc([C@H]2CCCN2c2ccc(C3CCNCC3)cc2)cs1)c1cccn1Cc1ccncc1 [Compound A51, (R)-N-(4-(1-(4-(piperidin-4-yl)phenyl)pyrrolidin-2-yl)thiazol-2-yl)-1-(pyridin-4-ylmethyl)-1H-pyrrole-2-carboxamide]
[1]
  IC50: 19.3 µM
  24 hr Dox Inducible TNFaFLGluc 293FRT/TO: TNF/PD1: 36.5
[2]
  IC50: 1040 nM
  24 hr Dox Inducible IL2FLGluc 293FRT/TO: IL2/PD1: 2
[3]
  IC50: 529 nM
[4]
  Liver Microsome Stability (Multiple Species): Mouse - % Remaining after 30 min w/NADPH: 64.3%
[5]
  IC50: 917 nM
[6]
  Liver Microsome Stability (Multiple Species): Human - % Remaining after 30 min w/NADPH: 2.67%
[7]
  Liver Microsome Stability (Multiple Species): Rat - % Remaining after 30 min w/NADPH: 0.4%
[8]
  EC50: 6.06 µM
[9]
  Liver Microsome Stability (Multiple Species): Monkey - % Remaining after 30 min w/NADPH: 1.91%
[10]
  EC50: 4.95 µM

## CC(=O)N1CCC(Oc2ccc(N3CCC[C@@H]3c3csc(NC(=O)c4cccn4CC4CCOCC4)n3)cc2)CC1 [Compound C103, (R)-N-(4-(1-(4-((1-acetylpiperidin-4-yl)oxy)phenyl)pyrrolidin-2-yl)thiazol-2-yl)-1-((tetrahydro-2H-pyran-4-yl)methyl)-1H-pyrrole-2-carboxamide]
[1]; mean
  IC50: 4.99 µM
[1]; [11]
  24 hr Dox Inducible TNFaFLGluc 293FRT/TO: TNF/PD1: 7.5
[2]; mean
  IC50: 1160 nM
[2]; [11]
  24 hr Dox Inducible IL2FLGluc 293FRT/TO: IL2/PD1: 1.7
[3]; mean
  IC50: 665 nM
[4]
  Liver Microsome Stability (Multiple Species): Mouse - % Remaining after 30 min w/NADPH: 54.8%
[5]; mean
  IC50: 1340 nM
[6]
  Liver Microsome Stability (Multiple Species): Human - % Remaining after 30 min w/NADPH: 34.8%
[7]
  Liver Microsome Stability (Multiple Species): Rat - % Remaining after 30 min w/NADPH: 30%
[8]
  EC50: > 25 µM
[9]
  Liver Microsome Stability (Multiple Species): Monkey - % Remaining after 30 min w/NADPH: 12.9%
[10]
  EC50: 14 µM

## O=C1NC(/C=C/c2csc(NC(=O)c3cccn3Cc3ccncc3)n2)CO1 (stereo not drawn) [Compound B12]
[1]
  IC50: > 25 µM
  24 hr Dox Inducible TNFaFLGluc 293FRT/TO: TNF/PD1: <=>1.00
[2]
  IC50: > 25000 nM
  24 hr Dox Inducible IL2FLGluc 293FRT/TO: IL2/PD1: 1
[3]
  IC50: > 25000 nM
[4]
  Liver Microsome Stability (Multiple Species): Mouse - % Remaining after 30 min w/NADPH: 1.41%
[5]
  IC50: > 25000 nM
[6]
  Liver Microsome Stability (Multiple Species): Human - % Remaining after 30 min w/NADPH: 3.28%
[7]
  Liver Microsome Stability (Multiple Species): Rat - % Remaining after 30 min w/NADPH: 11%
[8]
  EC50: > 25 µM
[9]
  Liver Microsome Stability (Multiple Species): Monkey - % Remaining after 30 min w/NADPH: 4.16%
[10]
  EC50: > 25 µM

## O=C(Nc1nc(/C=C/c2cn3ccccc3n2)cs1)c1cccn1Cc1ccncc1 [Compound B50, (E)-N-(4-(2-(imidazo[1,2-a]pyridin-2-yl)vinyl)thiazol-2-yl)-1-(pyridin-4-ylmethyl)-1H-pyrrole-2-carboxamide]
[1]
  IC50: > 25 µM
  24 hr Dox Inducible TNFaFLGluc 293FRT/TO: TNF/PD1: >73.7
[2]
  IC50: > 25000 nM
  24 hr Dox Inducible IL2FLGluc 293FRT/TO: IL2/PD1: >74
[3]
  IC50: 339 nM
[4]
  Liver Microsome Stability (Multiple Species): Mouse - % Remaining after 30 min w/NADPH: 0.94%
[5]
  IC50: 11400 nM
[6]
  Liver Microsome Stability (Multiple Species): Human - % Remaining after 30 min w/NADPH: 1.21%
[7]
  Liver Microsome Stability (Multiple Species): Rat - % Remaining after 30 min w/NADPH: 0.06%
[8]
  EC50: > 24.6 µM
[9]
  Liver Microsome Stability (Multiple Species): Monkey - % Remaining after 30 min w/NADPH: 0.74%
[10]
  EC50: 18.8 µM

## CC(=O)Nc1c(F)cc(N2CCC[C@@H]2c2csc(NC(=O)c3cccn3Cc3ccnc(F)c3)n2)cc1F [Compound A99, (R)-N-(4-(1-(4-acetamido-3,5-difluorophenyl)pyrrolidin-2-yl)thiazol-2-yl)-1-((2-fluoropyridin-4-yl)methyl)-1H-pyrrole-2-carboxamide]
[1]
  IC50: 5.91 µM
  24 hr Dox Inducible TNFaFLGluc 293FRT/TO: TNF/PD1: 46.7
[2]
  IC50: 348 nM
  24 hr Dox Inducible IL2FLGluc 293FRT/TO: IL2/PD1: 2.8
[3]
  IC50: 127 nM
[4]
  Liver Microsome Stability (Multiple Species): Mouse - % Remaining after 30 min w/NADPH: 1.28%
[5]
  IC50: 284 nM
[6]
  Liver Microsome Stability (Multiple Species): Human - % Remaining after 30 min w/NADPH: 1.85%
[7]
  Liver Microsome Stability (Multiple Species): Rat - % Remaining after 30 min w/NADPH: 0.49%
[8]
  EC50: > 25 µM
[9]
  Liver Microsome Stability (Multiple Species): Monkey - % Remaining after 30 min w/NADPH: 0.12%
[10]
  EC50: 5.3 µM

## O=C(Nc1nc([C@H]2CCCN(c3ccccn3)C2)cs1)c1cccn1Cc1ccncc1 [Compound E45, (S)-N-(4-(1-(pyridin-2-yl)piperidin-3-yl)thiazol-2-yl)-1-(pyridin-4-ylmethyl)-1H-pyrrole-2-carboxamide]
[1]; mean
  IC50: 6.03 µM
[1]; [11]
  24 hr Dox Inducible TNFaFLGluc 293FRT/TO: TNF/PD1: 11.4
[2]; mean
  IC50: 2370 nM
[2]; [11]
  24 hr Dox Inducible IL2FLGluc 293FRT/TO: IL2/PD1: 4.5
[3]; mean
  IC50: 531 nM
[4]
  Liver Microsome Stability (Multiple Species): Mouse - % Remaining after 30 min w/NADPH: 2.25%
[5]; mean
  IC50: 1450 nM
[6]
  Liver Microsome Stability (Multiple Species): Human - % Remaining after 30 min w/NADPH: 0.19%
[7]
  Liver Microsome Stability (Multiple Species): Rat - % Remaining after 30 min w/NADPH: 1.2%
[8]
  EC50: 14.3 µM
[9]
  Liver Microsome Stability (Multiple Species): Monkey - % Remaining after 30 min w/NADPH: 0.23%
[10]
  EC50: 17.3 µM

## C[C@@H](N)c1ccc(N2CCC[C@@H]2c2csc(NC(=O)c3cccn3Cc3ccnc(F)c3)n2)cc1 [Compound A72, N-(4-((R)-1-(4-((R)-1-aminoethyl)phenyl)pyrrolidin-2-yl)thiazol-2-yl)-1-((2-fluoropyridin-4-yl)methyl)-1H-pyrrole-2-carboxamide]
[1]
  IC50: 2.65 µM
  24 hr Dox Inducible TNFaFLGluc 293FRT/TO: TNF/PD1: 18.8
[2]
  IC50: 316 nM
  24 hr Dox Inducible IL2FLGluc 293FRT/TO: IL2/PD1: 2.2
[3]
  IC50: 141 nM
[4]
  Liver Microsome Stability (Multiple Species): Mouse - % Remaining after 30 min w/NADPH: 72.3%
[5]
  IC50: 197 nM
[6]
  Liver Microsome Stability (Multiple Species): Human - % Remaining after 30 min w/NADPH: 23.9%
[7]
  Liver Microsome Stability (Multiple Species): Rat - % Remaining after 30 min w/NADPH: 94.1%
[8]
  EC50: 6.55 µM
[9]
  Liver Microsome Stability (Multiple Species): Monkey - % Remaining after 30 min w/NADPH: 37.8%
[10]
  EC50: 3.77 µM

## COC(=O)Nc1ccc(N2CCC[C@@H]2c2csc(NC(=O)c3cc(C)cn3Cc3ccnc(F)c3)n2)cc1 [Compound A172, methyl (R)-(4-(2-(2-(1-((2-fluoropyridin-4-yl)methyl)-4-methyl-1H-pyrrole-2-carboxamido)thiazol-4-yl)pyrrolidin-1-yl)phenyl)carbamate]
[1]
  IC50: 0.0504 µM
  24 hr Dox Inducible TNFaFLGluc 293FRT/TO: TNF/PD1: 19
[2]
  IC50: 5.99 nM
  24 hr Dox Inducible IL2FLGluc 293FRT/TO: IL2/PD1: 2.3
[3]
  IC50: 2.66 nM
[4]
  Liver Microsome Stability (Multiple Species): Mouse - % Remaining after 30 min w/NADPH: 44.9%
[5]
  IC50: 5.18 nM
[6]
  Liver Microsome Stability (Multiple Species): Human - % Remaining after 30 min w/NADPH: 65.3%
[7]
  Liver Microsome Stability (Multiple Species): Rat - % Remaining after 30 min w/NADPH: 19.7%
[8]
  EC50: > 25 µM
[9]
  Liver Microsome Stability (Multiple Species): Monkey - % Remaining after 30 min w/NADPH: 43.3%
[10]
  EC50: 0.19 µM
